Experimental data published in US12344597B2, “Alkoxy-substituted pyridinyl derivatives as LPA1 receptor antagonists and their use in the treatment of fibrosis” (IDORSIA PHARMACEUTICALS LTD, priority 2018, dated 2025).

biological target: human LPA1 receptor (Homo sapiens (Human), UniProt Q92633); assay: Beta-arrestin recruitment assay to determine IC50 values for human LPAR1; assay type: cell-based; conditions: antagonist mode, Tango EDG2-bla U2OS cells, LPA 18:1 500 nM final
From the text: Beta-Arrestin Recruitment Assay to Determine IC50 Values for Human LPAR1
The Tango™ EDG2-bla U2OS cells are obtained from Invitrogen. These cells contain the human LPA1 receptor cDNA linked to a TEV protease site and a Gal4-VP16 transcription factor integrated into the Tango™ GPCR-bla U2OS parental cell line. This parental cell line stably expresses a beta-arrestin/TEV protease fusion protein and the beta-lactamase (bla) reporter gene under the control of a UAS response element. Upon LPA (agonist) binding, LPA1 receptor gets activated, leading to arrestin-protease recruitment and proteolytic release of the transcription factor: The transcription factor then regulates transcription of a beta-lactamase reporter construct, which is measured upon addition of the live-cell substrate.
10′000 Tango™ EDG2-bla U2OS cells are seeded in a 384-well black with clear bottom plate in 30 μl Freestyle 293 Expression Medium (Invitrogen) and incubated for 20 h at 37° C., 5% CO2. […] IC50 is the concentration of antagonist inhibiting 50% of the maximal response.

human LPA1 receptor, sequence (Q92633 whole entry): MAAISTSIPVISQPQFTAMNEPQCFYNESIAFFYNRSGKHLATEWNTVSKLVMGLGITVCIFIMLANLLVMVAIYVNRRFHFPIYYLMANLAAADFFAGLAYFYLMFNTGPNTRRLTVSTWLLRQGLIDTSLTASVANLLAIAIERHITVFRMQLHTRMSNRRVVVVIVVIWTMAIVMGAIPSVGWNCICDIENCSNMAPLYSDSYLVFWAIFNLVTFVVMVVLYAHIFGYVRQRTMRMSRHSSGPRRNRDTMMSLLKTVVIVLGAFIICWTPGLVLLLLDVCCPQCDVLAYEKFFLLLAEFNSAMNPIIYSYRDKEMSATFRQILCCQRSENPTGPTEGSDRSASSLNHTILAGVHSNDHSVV

SMILES | IC50
Cc1ccc(NC(=O)C2(c3ccccc3C(C)C)CN(C(=O)NCC(=O)O)C2)c(OC(F)F)n1 [Ex 17-4, (3-((2-(difluoromethoxy)-6-methylpyridin-3-yl)carbamoyl)-3-(2-isopropylphenyl)azetidine-1-carbonyl)glycine] | 0.034 µM
Cc1ccc(NC(=O)C2(c3ccccc3C(C)C)CN(C(=O)[C@H](O)[C@@H](O)C(=O)O)C2)c(OC(F)F)n1 [Ex 12-118, (2R,3R)-4-(3-((2-(difluoromethoxy)-6-methylpyridin-3-yl)carbamoyl)-3-(2-isopropylphenyl)azetidin-1-yl)-2,3-dihydroxy-4-oxobutanoic acid] | 0.03 µM
COC(=O)CCC(=O)N1CC(C(=O)Nc2ccc(Cl)nc2OC)(c2ccccc2C(C)C)C1 [Ex 12-69, methyl 4-(3-((6-chloro-2-methoxypyridin-3-yl)carbamoyl)-3-(2-isopropylphenyl)azetidin-1-yl)-4-oxobutanoate] | 0.23 µM
COC(=O)C1(COC(=O)N2CC(C(=O)Nc3ccc(C)nc3OC(F)F)(c3ccccc3C(C)C)C2)COC1 [Ex 14-13, (3-(methoxycarbonyl)oxetan-3-yl)methyl 3-((2-(difluoromethoxy)-6-methylpyridin-3-yl)carbamoyl)-3-(2-isopropylphenyl)azetidine-1-carboxylate] | 0.029 µM
COC(=O)CCC(=O)N1CC(C(=O)Nc2ccc(C)nc2OC(C)C)(c2ccccc2C(C)C)C1 [Ex 12-67, methyl 4-(3-((2-isopropoxy-6-methylpyridin-3-yl)carbamoyl)-3-(2-isopropylphenyl)azetidin-1-yl)-4-oxobutanoate] | 0.075 µM
Cc1ccc(NC(=O)C2(c3ccccc3C(C)C)CN(C(=O)CC3NCCNC3=O)C2)c(OC(F)F)n1 (centres unmarked) [Ex 12-46, N-(2-(difluoromethoxy)-6-methylpyridin-3-yl)-3-(2-isopropylphenyl)-1-(2-(3-oxopiperazin-2-yl)acetyl)azetidine-3-carboxamide] | 0.556 µM
COc1nc(C)ccc1NC(=O)C1(c2ccccc2C(C)C)CN(S(N)(=O)=O)C1 [Ex 15-16, 3-(2-isopropylphenyl)-N-(2-methoxy-6-methylpyridin-3-yl)-1-sulfamoylazetidine-3-carboxamide] | 0.05 µM
Cc1ccc(NC(=O)C2(c3ccccc3C(C)C)CN(C(=O)CCn3cnnc3)C2)c(OC(F)F)n1 [Ex 12-28, 1-(3-(4H-1,2,4-triazol-4-yl)propanoyl)-N-(2-(difluoromethoxy)-6-methylpyridin-3-yl)-3-(2-isopropylphenyl)azetidine-3-carboxamide] | 0.222 µM
Cc1ccc(NC(=O)C2(c3ccccc3C(C)C)CN(Cc3coc(C)n3)C2)c(OC(F)F)n1 [Ex 11-21, N-(2-(difluoromethoxy)-6-methylpyridin-3-yl)-3-(2-isopropylphenyl)-1-((2-methyloxazol-4-yl)methyl)azetidine-3-carboxamide] | 0.06 µM
Cc1ccc(NC(=O)C2(c3ccccc3C(C)C)CN(CC3CCC(C(=O)O)CC3)C2)c(OC(F)F)n1 (centres unmarked) [Ex 41, 4-((3-((2-(difluoromethoxy)-6-methylpyridin-3-yl)carbamoyl)-3-(2-isopropylphenyl)azetidin-1-yl)methyl)cyclohexane-1-carboxylic acid] | 0.096 µM
Cc1ccc(NC(=O)C2(c3ccccc3C(C)C)CN(CCCC(C)(C)[N+](=O)[O-])C2)c(OC(F)F)n1 [Ex 11-61, N-(2-(difluoromethoxy)-6-methylpyridin-3-yl)-3-(2-isopropylphenyl)-1-(4-methyl-4-nitropentyl)azetidine-3-carboxamide] | 0.039 µM
Cc1ccc(NC(=O)C2(c3ccccc3C(C)C)CN(C(=O)N3CCOCC3)C2)c(OC(F)F)n1 [Ex 17-27, N-(2-(difluoromethoxy)-6-methylpyridin-3-yl)-3-(2-isopropylphenyl)-1-(morpholine-4-carbonyl)azetidine-3-carboxamide] | 0.21 µM
CCOC(=O)C[C@@H](CC(=O)N1CC(C(=O)Nc2ccc(C)nc2OC(F)F)(c2ccccc2C(C)C)C1)OC(C)=O [Ex 12-104, ethyl (R)-3-acetoxy-5-(3-((2-(difluoromethoxy)-6-methylpyridin-3-yl)carbamoyl)-3-(2-isopropylphenyl)azetidin-1-yl)-5-oxopentanoate] | 0.041 µM

Compounds with a lower IC50, results first:

IC50 | SMILES
0.017 µM | CC(C)c1ccccc1C1(C(=O)Nc2ncc(Cl)cc2OC(F)F)CN(C(=O)CC(C)(C)C(=O)O)C1 [Ex 79-3, 4-(3-((5-chloro-3-(difluoromethoxy)pyridin-2-yl)carbamoyl)-3-(2-isopropylphenyl)azetidin-1-yl)-2,2-dimethyl-4-oxobutanoic acid]
0.013 µM | CNS(=O)(=O)CC(=O)N1CC(C(=O)Nc2ccc(C)nc2OC(F)F)(c2ccccc2C(C)C)C1 [Ex 12-6, N-(2-(difluoromethoxy)-6-methylpyridin-3-yl)-3-(2-isopropylphenyl)-1-(2-(N-methylsulfamoyl)acetyl)azetidine-3-carboxamide]
0.007 µM | CCOC(=O)/C=C\C(=O)N1CC(C(=O)Nc2ccc(C)nc2OC(F)F)(c2ccccc2C(C)C)C1 [Ex 12-76, ethyl (Z)-4-(3-((2-(difluoromethoxy)-6-methylpyridin-3-yl)carbamoyl)-3-(2-isopropylphenyl)azetidin-1-yl)-4-oxobut-2-enoate]
0.005 µM | COC(=O)[C@@H](C)NC(=O)N1CC(C(=O)Nc2ccc(C)nc2OC(F)F)(c2ccccc2C(C)C)C1 [Ex 17-23, methyl (3-((2-(difluoromethoxy)-6-methylpyridin-3-yl)carbamoyl)-3-(2-isopropylphenyl)azetidine-1-carbonyl)-D-alaninate]
0.01 µM | Cc1ccc(NC(=O)C2(c3ccccc3C(C)C)CN(C(=O)[C@H](C)N)C2)c(OC(F)F)n1 [Ex 12-33, 1-(L-alanyl)-N-(2-(difluoromethoxy)-6-methylpyridin-3-yl)-3-(2-isopropylphenyl)azetidine-3-carboxamide]
0.009 µM | COC(=O)[C@@H](NC(=O)N1CC(C(=O)Nc2ccc(C)nc2OC(F)F)(c2ccccc2C(C)C)C1)C(C)C [Ex 17-6, methyl (3-((2-(difluoromethoxy)-6-methylpyridin-3-yl)carbamoyl)-3-(2-isopropylphenyl)azetidine-1-carbonyl)-L-valinate]
0.01 µM | Cc1ccc(NC(=O)C2(c3ccccc3C(C)C)CN(C(=O)CCC(=O)O)C2)c(OC(F)F)n1 [Ex 12-71, 4-(3-((2-(difluoromethoxy)-6-methylpyridin-3-yl)carbamoyl)-3-(2-isopropylphenyl)azetidin-1-yl)-4-oxobutanoic acid]
0.02 µM | CCOC(=O)c1cnc(N2CC(C(=O)Nc3ccc(C)nc3OC(F)F)(c3ccccc3C(C)C)C2)o1 [Ex 18-31, ethyl 2-(3-((2-(difluoromethoxy)-6-methylpyridin-3-yl)carbamoyl)-3-(2-isopropylphenyl)azetidin-1-yl)oxazole-5-carboxylate]
0.016 µM | Cc1ccc(NC(=O)C2(c3ccccc3C(C)C)CN(C(=O)C3(CC(=O)O)COC3)C2)c(OC(F)F)n1 [Ex 12-99, 2-(3-(3-((2-(difluoromethoxy)-6-methylpyridin-3-yl)carbamoyl)-3-(2-isopropylphenyl)azetidine-1-carbonyl)oxetan-3-yl)acetic acid]
0.016 µM | Cc1ccc(NC(=O)C2(c3ccccc3C(C)C)CN(C(=O)NCC3(C(=O)O)CC3)C2)c(OC(F)F)n1 [Ex 17-15, 1-((3-((2-(difluoromethoxy)-6-methylpyridin-3-yl)carbamoyl)-3-(2-isopropylphenyl)azetidine-1-carboxamido)methyl)cyclopropane-1-carboxylic acid]
0.013 µM | CCOC(=O)C1(NC(=O)N2CC(C(=O)Nc3ccc(C)nc3OC(F)F)(c3ccccc3C(C)C)C2)CC1 [Ex 17-10, ethyl 1-(3-((2-(difluoromethoxy)-6-methylpyridin-3-yl)carbamoyl)-3-(2-isopropylphenyl)azetidine-1-carboxamido)cyclopropane-1-carboxylate]
0.011 µM | Cc1ccc(NC(=O)C2(c3ccccc3C(C)C)CN(C(=O)CCC(O)C(F)(F)F)C2)c(OC(F)F)n1 (centres unmarked) [Ex 12-120, N-(2-(difluoromethoxy)-6-methylpyridin-3-yl)-3-(2-isopropylphenyl)-1-(5,5,5-trifluoro-4-hydroxypentanoyl)azetidine-3-carboxamide]
0.001 µM | Cc1ccc(NC(=O)C2(c3ccccc3C(C)C)CN(c3ccc(C#N)cn3)C2)c(OC(F)F)n1 [Ex 18-22, 1-(5-cyanopyridin-2-yl)-N-(2-(difluoromethoxy)-6-methylpyridin-3-yl)-3-(2-isopropylphenyl)azetidine-3-carboxamide]
0.015 µM | Cc1ccc(NC(=O)C2(c3ccccc3C(C)C)CN(S(=O)(=O)NCCF)C2)c(OC(F)F)n1 [Ex 15-4, N-(2-(difluoromethoxy)-6-methylpyridin-3-yl)-1-(N-(2-fluoroethyl)sulfamoyl)-3-(2-isopropylphenyl)azetidine-3-carboxamide]
0.02 µM | Cc1ccc(NC(=O)C2(c3ccccc3C(C)C)CN(C(=O)CS(N)(=O)=O)C2)c(OC(F)F)n1 [Ex 12-4, N-(2-(difluoromethoxy)-6-methylpyridin-3-yl)-3-(2-isopropylphenyl)-1-(2-sulfamoylacetyl)azetidine-3-carboxamide]
0.023 µM | Cc1ccc(NC(=O)C2(c3ccccc3C(C)C)CN(CC3(CC(=O)O)CC3)C2)c(OC(F)F)n1 [Ex 11-68, 2-(1-((3-((2-(difluoromethoxy)-6-methylpyridin-3-yl)carbamoyl)-3-(2-isopropylphenyl)azetidin-1-yl)methyl)cyclopropyl)acetic acid]
